This test relates to Plasmodium berghei. Put plainly: Luciferase/luciferin-expressing antifolate-resistant parasites were used to infect a culture of HepG2 cells that were pre-incubated with compounds. Infected hepatocytes emit light due to the luciferase reaction. Assay results are presented as the percent inhibition of light emission compared to control. […]. It counts as functional. The settings on record: sporozoite; for IC90: read-out: LUCIFERASE INFECTION ASSAY - IC90.

Where [1] appears, read: read-out: LUCIFERASE INFECTION ASSAY - IC50.

Some results are limits rather than exact numbers.

Usually IC50 stands for the concentration that inhibits the measured activity by half. The term IC90 denotes the concentration at which the effect reaches the 90% level. As to `Nc1cccc2c1C(=O)N(C(=O)/C=C/c1cccc(F)c1)C2=O`, the IC90 was above 10 µM. Also, for the setting “HEPG2TOX_HILL_SLOPE 0.728, HEPG2TOX_R_SQUARED 0.696, PBLUC_HILL_SLOPE 1.8, PBLUC_R_SQUARED 0.344, read-out: LUCIFERASE INFECTION ASSAY - IC50”, the IC50 is 8.07 µM.
`COc1cc(NC(=O)COC(=O)c2c3c(nc4ccccc24)CCC(C(C)(C)C)C3)c(C)cc1[N+](=O)[O-]` (centres undefined): the IC90 is above 10 µM. Moreover, the IC50 (HEPG2TOX_HILL_SLOPE 0.52, HEPG2TOX_R_SQUARED 0.623, PBLUC_HILL_SLOPE 14.9, PBLUC_R_SQUARED 0.282, read-out: LUCIFERASE INFECTION ASSAY - IC50) is above 10 µM.
For the compound `COc1cc(CNc2ncnc3sc(-c4ccccc4)cc23)ccn1`, the IC90 was above 10 µM. Under setting [1], the IC50 came to 8.74 µM.
For the compound `CC(C)(C)c1ccc(NC(=O)c2ccc[nH]c2=S)cc1`, the IC90 was 0.656 µM. The IC50 (PBLUC_HILL_SLOPE 0.943, PBLUC_R_SQUARED 0.946, read-out: LUCIFERASE INFECTION ASSAY - IC50) amounted to 0.0638 µM.
With `CCCCc1ccc(C(=O)Nc2nc3ccc(C)cn3c2C(=O)NCCC)cc1`, the IC90 turned out to be 3.18 µM. Besides, the IC50 (HEPG2TOX_HILL_SLOPE 1.88, HEPG2TOX_R_SQUARED 0.855, PBLUC_HILL_SLOPE 16.2, PBLUC_R_SQUARED 0.661, read-out: LUCIFERASE INFECTION ASSAY - IC50) stood at 2.78 µM.
Take `O=C(Nc1ccc(Cl)c(Cl)c1)Nc1ccc2c(c1)OCCO2`: the IC90 is above 9.73 µM. The IC50 under setting [1] is above 9.73 µM.
`FC(F)(F)c1ccccc1N/N=C/c1ccc(OCc2ccccc2)c(OCc2ccccc2)c1`: the IC90 is above 10 µM. Besides, the IC50 (FFLUC_HILL_SLOPE 10.4, FFLUC_R_SQUARED 0.371, read-out: LUCIFERASE INFECTION ASSAY - IC50) is above 10 µM.
In the case of `COc1ccc(-c2ccc3c(c2)COC2(CCN(C(=O)c4cc(F)ccc4C)CC2)O3)cc1OC`, the IC90 is above 6.91 µM. Also, the IC50 under setting [1] was above 6.91 µM.
Turning to `CC(C)(C)c1cc(N2Cc3ccccc3C2=N)cc(C(C)(C)C)c1`, the IC90 is above 10 µM. The IC50 under setting [1] is above 10 µM.
As to `Cn1c(-c2cccc(F)c2)nc2cnc(-c3cccc(Cl)c3)cc21`, the IC90 was above 10 µM. The IC50 (HEPG2TOX_HILL_SLOPE 19.5, HEPG2TOX_R_SQUARED 0.312, read-out: LUCIFERASE INFECTION ASSAY - IC50) is above 10 µM.
Consider `Cc1cnc(NC(=O)CSCc2cccs2)s1`, for which the IC90 was above 10 µM. In addition, the IC50 under setting [1] is above 10 µM.
With `Cc1ccc(C(C)C)cc1OCc1nnc2n(C)c(=O)c3ccccc3n12`, the IC90 is above 10 µM. The IC50 under setting [1] is above 10 µM.
`C=CC/N=c1\scc(-c2ccc(Br)s2)n1/N=C/c1ccccn1`: the IC90 stood at 4.27 µM. In addition, under setting [1], the IC50 worked out at 3.59 µM.
Taken in the same sequence, the figures for `Cc1ccc(-c2csc3ncn(CC(=O)c4cc(C)n(C5CCS(=O)(=O)C5)c4C)c(=O)c23)cc1` (centres undefined) were above 10 µM and above 10 µM.
As for `CC(=O)Nc1cccc(-c2ccc3c(-c4ccccc4Oc4ccccc4)[nH]nc3n2)c1`, the IC90 was above 7.85 µM. The IC50 (HEPG2TOX_HILL_SLOPE 12.7, HEPG2TOX_R_SQUARED 0.516, PBLUC_HILL_SLOPE 10.9, PBLUC_R_SQUARED 0.441, read-out: LUCIFERASE INFECTION ASSAY - IC50) was found to be 6.81 µM.
In the case of `Cc1nc(-c2ccc(NC(=O)c3cnn(-c4ccccc4F)c3C(F)(F)F)cc2)cs1`, the IC90 is above 10 µM. The IC50 (PBLUC_HILL_SLOPE 2.7, PBLUC_R_SQUARED 0.26, read-out: LUCIFERASE INFECTION ASSAY - IC50) stood at 7.76 µM.
`Cc1ccc(C)c(Sc2ccc(NC(=O)CN3C(=O)NC(Cc4ccccc4)C3=O)cc2)c1` (centres undefined): the IC90 was above 10 µM. Further, the IC50 (PBLUC_HILL_SLOPE 1.97, PBLUC_R_SQUARED 0.872, read-out: LUCIFERASE INFECTION ASSAY - IC50) turned out to be 5.94 µM.
Turning to `CCCn1c(NC(=O)C2CCN(S(=O)(=O)c3cccc(Cl)c3Cl)CC2)nc2ccccc21`, the IC90 was 6.16 µM. The IC50 (HEPG2TOX_HILL_SLOPE 3.25, HEPG2TOX_R_SQUARED 0.759, PBLUC_HILL_SLOPE 100, PBLUC_R_SQUARED 0.016, read-out: LUCIFERASE INFECTION ASSAY - IC50) was 6.02 µM.
Take `CCn1c(=O)n(Cc2ncc(-c3cccc(Cl)c3)o2)c2ccccc21`: the IC90 was above 10 µM. The IC50 (PBLUC_HILL_SLOPE 1.51, PBLUC_R_SQUARED 0.651, read-out: LUCIFERASE INFECTION ASSAY - IC50) turned out to be 5.23 µM.
Take `Cn1c(=O)/c(=C\c2cn(-c3ccccc3)nc2-c2ccccc2)s/c1=C\C(=O)C(C)(C)C`: the IC90 is above 10 µM. In addition, for the setting “FFLUC_HILL_SLOPE 11.8, FFLUC_R_SQUARED 0.797, read-out: LUCIFERASE INFECTION ASSAY - IC50”, the IC50 is above 10 µM.
Consider `O=C(O)c1ccc(Cl)cc1Oc1ccccc1`, for which the IC90 was above 13.3 µM. For the setting “FFLUC_HILL_SLOPE 1.52, FFLUC_R_SQUARED 0.302, read-out: LUCIFERASE INFECTION ASSAY - IC50”, the IC50 is above 13.3 µM.
In the case of `c1ccc(-c2nn(-c3ccccc3)cc2CSc2nncs2)cc1`, the IC90 was above 10 µM. In addition, the IC50 (PBLUC_HILL_SLOPE 1.24, PBLUC_R_SQUARED 0.639, read-out: LUCIFERASE INFECTION ASSAY - IC50) stood at 5.72 µM.
`COc1cc(OC)cc(-c2cnc3cnc(-c4cccc(N)c4)cn23)c1`: the IC90 is above 9.53 µM. Further, under “FFLUC_HILL_SLOPE 17.8, FFLUC_R_SQUARED 0.255, PBLUC_HILL_SLOPE 12.5, PBLUC_R_SQUARED 0.443, read-out: LUCIFERASE INFECTION ASSAY - IC50”, the IC50 was determined as 9.41 µM.
With `Cc1ccc(CCC2CCN(C(C)C(=O)Nc3cccc(S(N)(=O)=O)c3)CC2)cc1` (centres undefined), the IC90 was above 10 µM. The IC50 under setting [1] came to 6.94 µM.
The corresponding values for `COc1cc2c(cc1NC(=O)c1cccc(F)c1)CCCC2` are above 11 µM and 4.59 µM.
On to `COc1cccc(Nc2nc(-c3ccc(CCC(C)NC(C)=O)cc3)cs2)c1` (centres undefined), for which the IC90 stood at 8.54 µM. Besides, the IC50 (HEPG2TOX_HILL_SLOPE 17.1, HEPG2TOX_R_SQUARED 0.93, PBLUC_HILL_SLOPE 0.895, PBLUC_R_SQUARED 0.745, read-out: LUCIFERASE INFECTION ASSAY - IC50) turned out to be 0.734 µM.
As to `Cc1ccc(-c2nn(-c3ccccc3)cc2/C=C/C(=O)NC2CCN(Cc3ccccc3)CC2)cc1`, the IC90 amounted to 9.38 µM. The IC50 (PBLUC_HILL_SLOPE 22.5, 12.9, PBLUC_R_SQUARED 0.0358, 0.549, read-out: LUCIFERASE INFECTION ASSAY - IC50) came to 8.22 µM.
In the case of `Cc1ccc(Cn2nc(C)c(C(=O)OCC(=O)/C=C3\N(C)c4ccccc4C3(C)C)c2Cl)cc1`, the IC90 was above 10 µM. For the same compound, the IC50 under setting [1] was above 10 µM.
`COc1ccccc1-c1noc(-c2cc3c(s2)CCCCC3)n1`: the IC90 was 0.846 µM. Further, the IC50 (FFLUC_HILL_SLOPE 2.02, FFLUC_R_SQUARED 0.0931, PBLUC_HILL_SLOPE 0.909, PBLUC_R_SQUARED 0.727, read-out: LUCIFERASE INFECTION ASSAY - IC50) came to 0.0754 µM.
On to `N#CC(=C1NS(=O)(=O)c2ccccc21)c1nc(C23CC4CC(CC(C4)C2)C3)cs1`, for which the IC90 is 1.97 µM. Where the note is “FFLUC_HILL_SLOPE 0.216, FFLUC_R_SQUARED 0.688, PBLUC_HILL_SLOPE 0.978, PBLUC_R_SQUARED 0.875, read-out: LUCIFERASE INFECTION ASSAY - IC50”, the IC50 was determined as 0.208 µM.
Regarding `O=C(CCCc1ccc(F)cc1)c1ccc2c(c1)OCCO2`, the IC90 was found to be 0.926 µM. Also, the IC50 (FFLUC_HILL_SLOPE 3.34, FFLUC_R_SQUARED 0.538, PBLUC_HILL_SLOPE 0.746, PBLUC_R_SQUARED 0.706, read-out: LUCIFERASE INFECTION ASSAY - IC50) worked out at 0.0487 µM.
With `Cc1ccc(-c2nnc(SCCOc3ccccc3C)nc2-c2ccc(C)cc2)cc1`, the IC90 was above 10 µM. The IC50 (HEPG2TOX_HILL_SLOPE 0.184, HEPG2TOX_R_SQUARED 0.53, PBLUC_HILL_SLOPE 4.7, PBLUC_R_SQUARED 0.148, read-out: LUCIFERASE INFECTION ASSAY - IC50) was 8.99 µM.
`Cc1cc(C(=O)Cn2nnc3ccccc3c2=O)c(C)n1-c1ccccc1F`: the IC90 is 3.8 µM. Besides, the IC50 (PBLUC_HILL_SLOPE 0.371, 0.679, PBLUC_R_SQUARED 0.784, 0.965, read-out: LUCIFERASE INFECTION ASSAY - IC50) turned out to be 0.126 µM.
For `COc1ccc(/C=C2\Oc3cc(O)cc(C)c3C2=O)c(OC)c1`, the IC90 is above 10.6 µM. Also, the IC50 (HEPG2TOX_HILL_SLOPE 7.92, HEPG2TOX_R_SQUARED 0.287, PBLUC_HILL_SLOPE 2.15, PBLUC_R_SQUARED 0.542, read-out: LUCIFERASE INFECTION ASSAY - IC50) stood at 6.5 µM.
Consider `COc1ccc(/C(C)=N/NC(=O)c2sc3ccccc3c2Cl)c(O)c1`, for which the IC90 stood at 3.29 µM. For the setting “HEPG2TOX_HILL_SLOPE 4.02, HEPG2TOX_R_SQUARED 0.607, PBLUC_HILL_SLOPE 31, PBLUC_R_SQUARED 0.396, read-out: LUCIFERASE INFECTION ASSAY - IC50”, the IC50 is 3.06 µM.
For `O=C(NNc1ncc(C(F)(F)F)cc1Cl)c1c(Cl)cccc1Cl`, the IC90 was above 8.58 µM. Further, the IC50 (HEPG2TOX_HILL_SLOPE 3.04, HEPG2TOX_R_SQUARED 0.858, PBLUC_HILL_SLOPE 3.51, PBLUC_R_SQUARED 0.0313, read-out: LUCIFERASE INFECTION ASSAY - IC50) is 6.25 µM.
In the case of `Cc1cc(/C=C/C(=O)Nc2ccc(S(=O)(=O)NC3=NCCCCC3)cc2)c(C)n1-c1ccccc1`, the IC90 is 6.38 µM. For the same compound, the IC50 (FFLUC_HILL_SLOPE 1.16, FFLUC_R_SQUARED 0.166, PBLUC_HILL_SLOPE 1.89, PBLUC_R_SQUARED 0.7, read-out: LUCIFERASE INFECTION ASSAY - IC50) was determined as 2 µM.
